Data as given in patent publication US9017646B2, “Process of evaluating blood-brain barrier permeability of stroke rat by using fluorescent substance” (Institute of Nuclear Energy Research, Atomic Energy Council, priority 2012, dated 2015).

Test system: blood-brain barrier of stroke rat
Test: Blood-brain barrier permeability of stroke rat (middle cerebral artery occlusion model) by Evans blue dye, optical image and IVIS 100 fluorescence imaging of the whole brain
Assay type: in vivo, SD (Sprague Dawley) rat
Settings: for presence of blue dye in brain tissue (optical image, FIG. 2): 30 minutes distribution, transcardial perfusion
Description: FIG. 1 is a schematic view of an evaluation process of the present invention. As shown, the invention is a process of evaluating the blood-brain barrier permeability of a stroke rat by using fluorescent substance. The process of the invention uses Evans blue dye having spontaneous fluorescence properties, in combination with the use of a new non-invasive in vivo imaging system (IVIS), to obtain fluorescent signals so as to assess the change in the blood-brain barrier permeability of rodents after a cerebral artery stroke model surgery. In operation, an Evans blue dye 11 is injected into a stroke rat 1 of middle cerebral artery occlusion model. A non-invasive in vivo imaging system 12 is used to detect the fluorescence distribution of the whole brain, and obtain images combined by the fluorescence images and optical images for the whole brain tissue. Thereby, the change in the blood-brain barrier permeability of the stroke rat can be completely realized.
FIG. 2 is an optical image of the whole brain tissue after the injection of Evans blue dye according to the invention. FIG. 3 is an integrated image combined the fluorescence images with the optical images by using an IVIS 100 system according to the invention. As shown, in a preferred embedment, the invention uses a SD (Sprague Dawley) rat as the stroke animal model subject to transient bilateral common carotid artery and right middle cerebral artery ligation. After the rat is anesthetized, the surgery procedure is described roughly as follows. The skull of the rat is opened by drilling in order to find the right middle cerebral artery. A 10-0 needle is used to take the right middle cerebral artery and rotate it 90 degrees. It is ensured that the blood cannot flow smoothly under the observation by a microscope. Then, both sides of the common carotid artery are subject to ligation for 90 minutes. After the stitches have been removed, wounds are sutured to allow the rat to be recovered.
Three groups are provided in the experiment, in which a sham group is a rat whose skull is opened without the bilateral common carotid artery and right middle cerebral artery ligation so as to exclude the impact caused by drilling the skull; a control group is the blank rat without any surgery; and a surgery group is a stroke rat whose skull is opened to perform the middle cerebral artery ligation.
Evans blue dye is dissolved in saline and injected intravenously into the rat via its tail 24 hours after surgery. After distribution for 30 minutes, the rat is anesthetized for transcardial perfusion in order to wash away the dye within the blood vessels. The IVIS 100 (Caliper) system is used to detect the fluorescence distribution of the whole brain tissue. The Evans blue dye can be excited by the light of 620 nanometer (nm) wavelengths to emit the light of 680 nm wavelength which can be detected by the IVIS 100 system and further converted into images (as shown in FIG. 3).

## Cc1cc(-c2ccc(/N=N/c3ccc4c(S(=O)(=O)O)cc(S(=O)(=O)O)c(N)c4c3O)c(C)c2)ccc1/N=N/c1ccc2c(S(=O)(=O)O)cc(S(=O)(=O)O)c(N)c2c1O [Evans blue dye, Evans blue]
Control group (blank rat without any surgery)
  fluorescence of whole brain tissue (IVIS 100, excitation 620 nm, emission 680 nm, FIG. 3): fluorescence is not obvious in the brain tissue
Control group (blank rat without any surgery), dye i.v. via tail
  presence of blue dye in brain tissue (optical image, FIG. 2): no presence of the blue dye in the brain tissue
Sham group (skull opened without ligation)
  fluorescence of whole brain tissue (IVIS 100, excitation 620 nm, emission 680 nm, FIG. 3): fluorescence is not obvious in the brain tissue
Sham group (skull opened without ligation), dye i.v. via tail 24 hours after surgery
  presence of blue dye in brain tissue (optical image, FIG. 2): no presence of the blue dye in the brain tissue
Surgery group (stroke rat), 24 hours after stroke surgery
  fluorescence of whole brain tissue (IVIS 100, excitation 620 nm, emission 680 nm, FIG. 3): fluorescence signals are detected in the right brain
Surgery group (stroke rat), dye i.v. via tail 24 hours after surgery
  presence of blue dye in brain tissue (optical image, FIG. 2): leak into the interstitial cells of the right brain
